What was measured:
[1] = Retention time of the compound in phosphate buffered saline at pH 7.4 by HPLC method
Mushroom tyrosinase [2] = molecular target: T1, Mushroom tyrosinase (Agaricus bisporus, UniProt O42713+Q00024+C7FF04+C7FF05); assay: Drug metabolism assessed as mushroom tyrosinase-mediated compound hydrolysis by measuring retention time by HPLC method; format: ADME
Plasma = assay: Retention time of the compound in 80% human plasma by HPLC method; format: ADME, cell-free
[3] = Prodrug activation assessed as mushroom tyrosinase-mediated compound hydrolysis by measuring Pseudo first-order rate constants in presence of 100 U/ml of tyrosinase by HPLC analysis; details: agaricus bisporus
[4] = Prodrug activation assessed as mushroom tyrosinase-mediated compound hydrolysis by measuring half life in presence of 100 U/ml of tyrosinase by HPLC analysis; details: agaricus bisporus
[5] = Half life in phosphate buffered saline at pH 7.4 by HPLC analysis; format: physicochemical
[6] = Half life in 80% human plasma by HPLC analysis; format: ADME, cell-free
[7] = Apparent partition coefficient, log P of the compound in 1-octanol/phosphate buffer at pH 7.4 measured after 30 mins by HPLC analysis; format: physicochemical; details: read-out: LogD7.4
[8] = Half life in deuterated phosphate buffer at pH 7.8 by 1H-NMR spectra analysis; format: physicochemical
HaCaT = assay: Cytotoxicity against human HaCaT cells after 72 hrs by MTS assay; format: cell-based
B16-F10 = assay: Cytotoxicity against mouse B16F10 cells after 72 hrs by MTS assay; format: functional, cell-based; details: B16-F10, 72 h
[9] = Cytotoxicity against human MNT1 cells after 72 hrs by MTS assay; format: functional, cell-based; details: MNT-1, 72 h
[10] = Prodrug activation assessed as mushroom tyrosinase-mediated compound hydrolysis by measuring Pseudo first-order rate constants in presence of 300 U/ml of tyrosinase by HPLC analysis; details: agaricus bisporus
mushroom tyrosinase [11] = molecular target: T2, mushroom tyrosinase (Agaricus bisporus, UniProt C7FF04+C7FF05+O42713+Q00024); assay: Drug metabolism assessed as mushroom tyrosinase-mediated compound consumption in presence of 300 U/ml of tyrosinase by HPLC method; format: ADME; details: read-out: Drug metabolism
[12] = Prodrug activation assessed as mushroom tyrosinase-mediated compound hydrolysis by measuring half life in presence of 300 U/ml of tyrosinase by HPLC analysis; details: agaricus bisporus
mushroom tyrosinase [13] = molecular target: T2, mushroom tyrosinase; assay: (§1) Drug metabolism assessed as mushroom tyrosinase-mediated compound oxidation by Michaelis-Menten plot analysis; format: ADME; details: mushroom tyrosinase
Mushroom tyrosinase [14] = molecular target: T1, Mushroom tyrosinase; assay: as §1; format: ADME
Mushroom tyrosinase [15] = molecular target: T1, Mushroom tyrosinase; assay: Ratio of Kcat to Km for mushroom tyrosinase-mediated compound oxidation; format: ADME
[16] = Stability of the compound in phosphate buffered saline at pH 7.4 assessed as parent compound remaining measured after 8 days by HPLC analysis; format: physicochemical; details: read-out: Stability
mushroom tyrosinase [17] = molecular target: T2, mushroom tyrosinase; assay: Drug metabolism assessed as mushroom tyrosinase-mediated compound consumption in presence of 100 U/ml of tyrosinase by HPLC method; format: ADME; details: read-out: Drug metabolism
NCCc1ccc(O)c(O)c1 = assay: (§2) Substrate activity at mushroom tyrosinase monophenolase activity by spectrophotometry based Michaelis-Menten plot analysis; details: Agaricus bisporus
O=C(O)Cc1ccc(O)cc1 = assay: as §2; details: Agaricus bisporus
[18] = tested on: N[C@@H](Cc1ccc(O)cc1)C(=O)O; assay: as §2; details: Agaricus bisporus

Chain of Mushroom tyrosinase (Agaricus bisporus) (C7FF05 whole entry, looked up): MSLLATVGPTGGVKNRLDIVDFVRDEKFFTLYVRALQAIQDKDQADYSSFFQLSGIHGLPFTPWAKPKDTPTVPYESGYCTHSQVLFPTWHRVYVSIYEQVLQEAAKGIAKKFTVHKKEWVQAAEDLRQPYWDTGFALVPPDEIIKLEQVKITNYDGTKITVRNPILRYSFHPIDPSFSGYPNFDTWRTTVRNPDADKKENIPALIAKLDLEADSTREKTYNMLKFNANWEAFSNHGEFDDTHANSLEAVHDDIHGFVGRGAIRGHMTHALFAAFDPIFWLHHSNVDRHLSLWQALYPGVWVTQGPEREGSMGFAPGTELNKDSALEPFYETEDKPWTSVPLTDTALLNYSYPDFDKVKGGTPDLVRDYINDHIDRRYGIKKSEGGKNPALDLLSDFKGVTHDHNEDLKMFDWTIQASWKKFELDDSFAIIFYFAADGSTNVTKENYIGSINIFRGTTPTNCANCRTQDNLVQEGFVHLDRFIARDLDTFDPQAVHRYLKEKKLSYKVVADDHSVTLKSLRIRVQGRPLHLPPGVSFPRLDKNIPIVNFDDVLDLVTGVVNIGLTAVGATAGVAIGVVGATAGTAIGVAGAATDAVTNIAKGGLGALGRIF
Chain of Mushroom tyrosinase (Agaricus bisporus) (C7FF04 whole entry, looked up): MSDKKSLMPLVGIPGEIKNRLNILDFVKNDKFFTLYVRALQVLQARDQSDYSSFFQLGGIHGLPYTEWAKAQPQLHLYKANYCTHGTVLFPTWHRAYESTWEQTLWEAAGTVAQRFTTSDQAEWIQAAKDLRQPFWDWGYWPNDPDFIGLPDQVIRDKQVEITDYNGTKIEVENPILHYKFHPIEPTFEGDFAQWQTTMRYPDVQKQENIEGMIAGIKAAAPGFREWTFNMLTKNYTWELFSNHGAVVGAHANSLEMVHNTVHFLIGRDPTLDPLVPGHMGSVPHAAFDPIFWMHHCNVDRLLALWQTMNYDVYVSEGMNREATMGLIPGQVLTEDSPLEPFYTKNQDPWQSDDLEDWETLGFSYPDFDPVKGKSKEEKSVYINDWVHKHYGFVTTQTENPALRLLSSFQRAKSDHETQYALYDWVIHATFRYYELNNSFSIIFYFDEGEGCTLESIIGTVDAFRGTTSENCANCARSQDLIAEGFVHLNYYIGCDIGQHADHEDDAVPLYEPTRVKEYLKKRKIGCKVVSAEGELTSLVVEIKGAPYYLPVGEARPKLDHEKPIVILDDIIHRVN
Chain of Mushroom tyrosinase (Agaricus bisporus) (Q00024 whole entry, looked up): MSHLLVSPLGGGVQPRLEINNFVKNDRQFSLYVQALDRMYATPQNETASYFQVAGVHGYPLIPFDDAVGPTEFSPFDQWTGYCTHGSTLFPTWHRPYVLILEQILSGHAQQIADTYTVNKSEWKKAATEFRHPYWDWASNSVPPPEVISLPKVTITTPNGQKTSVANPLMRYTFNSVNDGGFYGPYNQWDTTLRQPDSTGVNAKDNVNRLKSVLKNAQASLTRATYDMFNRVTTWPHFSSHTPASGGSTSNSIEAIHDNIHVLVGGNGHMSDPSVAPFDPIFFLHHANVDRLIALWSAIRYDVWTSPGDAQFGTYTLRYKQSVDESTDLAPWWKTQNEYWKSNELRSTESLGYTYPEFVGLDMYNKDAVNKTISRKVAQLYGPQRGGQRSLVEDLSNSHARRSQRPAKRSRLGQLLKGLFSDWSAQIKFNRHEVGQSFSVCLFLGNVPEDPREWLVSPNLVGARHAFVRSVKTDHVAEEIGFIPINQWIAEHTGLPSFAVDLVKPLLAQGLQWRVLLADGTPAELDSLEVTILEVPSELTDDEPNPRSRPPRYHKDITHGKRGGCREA
Chain of Mushroom tyrosinase (Agaricus bisporus) (O42713 whole entry, looked up): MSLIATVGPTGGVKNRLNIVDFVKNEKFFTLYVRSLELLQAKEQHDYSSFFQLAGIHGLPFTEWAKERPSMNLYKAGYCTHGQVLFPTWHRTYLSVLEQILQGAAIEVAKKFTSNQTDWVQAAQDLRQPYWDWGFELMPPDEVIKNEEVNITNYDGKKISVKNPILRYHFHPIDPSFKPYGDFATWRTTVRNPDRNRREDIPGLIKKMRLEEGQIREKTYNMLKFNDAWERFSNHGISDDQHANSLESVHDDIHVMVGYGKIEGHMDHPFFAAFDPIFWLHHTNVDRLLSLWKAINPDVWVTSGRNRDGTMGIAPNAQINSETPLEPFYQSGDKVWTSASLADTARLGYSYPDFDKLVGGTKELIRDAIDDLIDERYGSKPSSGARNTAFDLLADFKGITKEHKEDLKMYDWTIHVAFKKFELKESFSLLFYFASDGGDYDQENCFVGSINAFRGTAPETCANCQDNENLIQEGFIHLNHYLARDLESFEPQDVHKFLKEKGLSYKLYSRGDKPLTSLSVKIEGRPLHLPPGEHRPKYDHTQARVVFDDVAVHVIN

Nc1ccccc1 [ANILINE]
Retention time [1]: 2.4 min | Retention time (Mushroom tyrosinase [2]): 2 to 2.1 min | Retention_time (Plasma): 2 min

CC(=O)c1ccc(/N=N/N(C)C(=O)CCc2ccc(OC(=O)CCc3ccc(O)cc3)cc2)cc1
K [3]: 2.1 ×10⁻³ /s | t1/2 [4]: 0.0917 h

CN(/N=N/c1ccc(C#N)cc1)C(=O)Cc1ccc(O)cc1
half-life [5]: 48 h | half-life [6]: 1.48 h | t1/2 [4]: 0.467 to 0.468 h | logD at 0.5 h [7]: 2.99

CCOc1nc(/N=N/N(C)C(=O)Oc2ccc(C(=O)OC)cc2)nc2[nH]cnc12
half-life [8]: 0.4 to 58.3 h

CN(/N=N/c1nc(OCc2ccccc2)c2nc[nH]c2n1)C(=O)c1ccccc1
half-life [8]: 22.1 to 58.3 h

CN(/N=N/c1nc(OCc2ccccc2)c2nc[nH]c2n1)C(=O)c1ccc([N+](=O)[O-])cc1
half-life [8]: 22.1 to 58.3 h

COC(=O)c1ccc(/N=N/N(C)C(=O)CCc2cccc(O)c2)cc1
IC50 (HaCaT): 75 to 150 µM | Retention time [1]: 12.5 min | IC50 (B16-F10): > 75 µM | IC50 [9]: > 75 µM | half-life [5]: 94.7 h | K [10]: 9.1 ×10⁻⁶ /s | metabolised (mushroom tyrosinase [11]): 97.5% | half-life [6]: 7.8 h | Retention_time (Mushroom tyrosinase [2]): 12.3 min | t1/2 [12]: 21.17 h | logD at 0.5 h [7]: 3.42

COC(=O)c1ccc(/N=N/N(C)C(=O)CCCCc2ccc(O)cc2)cc1
IC50 (HaCaT): 75 to 150 µM | IC50 (B16-F10): > 75 µM | Km (mushroom tyrosinase [13]): 1080 µM | Kcat (Mushroom tyrosinase [14]): 0.013 s⁻¹ | Vmax (Mushroom tyrosinase [14]): 0.018 µM/min | IC50 [9]: > 75 µM | half-life [5]: 124 h | half-life [6]: 17.4 h | t1/2 [4]: 0.06 h | logD at 0.5 h [7]: 3.9 | Kcat/Km (Mushroom tyrosinase [15]): 13.88 M⁻¹ s⁻¹

CN(/N=N/c1nc(OCc2ccccc2)c2nc[nH]c2n1)C(=O)Oc1ccccc1
half-life [8]: 0.4 to 58.3 h

CC(=O)c1ccc(/N=N/N(C)C(=O)CCCCc2ccc(O)cc2)cc1
IC50 (HaCaT): > 100 µM | IC50 (B16-F10): > 75 µM | IC50 [9]: > 75 µM | half-life [6]: 32.7 h | t1/2 [4]: 0.0218 h | logD at 0.5 h [7]: 4 | remaining at 192 h [16]: 100%

CC(=O)c1ccc(/N=N/N(C)C(=O)CCc2ccc(O)cc2)cc1
IC50 (HaCaT): 75 to 150 µM | K [3]: 3.2 ×10⁻³ /s | IC50 (B16-F10): > 75 µM | IC50 [9]: > 75 µM | half-life [5]: 123 h | half-life [6]: 14.6 h | metabolised (mushroom tyrosinase [17]): 100% | t1/2 [4]: 0.06 to 0.061 h | logD at 0.5 h [7]: 3.05

CN(/N=N/c1ccc(C#N)cc1)C(=O)CCc1ccc(O)cc1
IC50 (HaCaT): 75 to 150 µM | K [3]: 7.9 ×10⁻³ /s | IC50 (B16-F10): > 75 µM | IC50 [9]: > 75 µM | half-life [5]: 76 h | half-life [6]: 5.8 h | metabolised (mushroom tyrosinase [17]): 100% | t1/2 [4]: 0.025 h | logD at 0.5 h [7]: 3.4

CCOc1nc(/N=N/N(C)C(=O)Oc2ccc([N+](=O)[O-])cc2)nc2[nH]cnc12
half-life [8]: 0.4 to 58.3 h

CN(/N=N/c1ccc(C(N)=O)cc1)C(=O)CCCCc1ccc(O)cc1
IC50 (HaCaT): 75 to 150 µM | IC50 (B16-F10): > 75 µM | IC50 [9]: > 75 µM | half-life [5]: 182 h | half-life [6]: 55.4 h | t1/2 [4]: 0.0967 h | logD at 0.5 h [7]: 3.6

CN(/N=N/c1nc(OCc2ccccc2)c2nc[nH]c2n1)C(=O)Oc1ccc(C(N)=O)cc1
half-life [8]: 0.4 to 58.3 h

CN(/N=N/c1ccc(Br)cc1)C(=O)CCCCc1ccc(O)cc1
IC50 (HaCaT): > 75 µM | IC50 (B16-F10): 52.2 µM | IC50 [9]: 45.8 µM | half-life [6]: 162 h | t1/2 [4]: 0.108 h | logD at 0.5 h [7]: 4.32 | remaining at 192 h [16]: 100%

CN(/N=N/c1nc(OCc2ccccc2)c2nc[nH]c2n1)C(=O)c1cccnc1
half-life [8]: 22.1 to 58.3 h

COC(=O)c1ccc(/N=N/N(C)C(=O)CCc2ccc(OC(=O)CCc3ccc(O)cc3)cc2)cc1
K [3]: 1.8 ×10⁻³ /s | t1/2 [4]: 0.107 h

CC(=O)N(C)/N=N/c1nc(OCc2ccccc2)c2nc[nH]c2n1
half-life [8]: 22.1 to 58.3 h

CN(/N=N/c1ccc(C#N)cc1)C(=O)CCc1cccc(O)c1
IC50 (HaCaT): 75 to 150 µM | IC50 (B16-F10): > 75 µM | IC50 [9]: > 75 µM | half-life [5]: 60.1 h | K [10]: 9.9 ×10⁻⁶ /s | metabolised (mushroom tyrosinase [11]): 91.1% | half-life [6]: 2.7 h | t1/2 [12]: 19.45 h | logD at 0.5 h [7]: 3.24 | Retention_time (Plasma): 8.8 min

CN(/N=N/c1ccc(C#N)cc1)C(=O)CCCCc1ccc(O)cc1
IC50 (HaCaT): 75 to 150 µM | IC50 (B16-F10): > 75 µM | Km (mushroom tyrosinase [13]): 860 µM | Kcat (Mushroom tyrosinase [14]): 0.009 s⁻¹ | Vmax (Mushroom tyrosinase [14]): 0.012 µM/min | IC50 [9]: > 75 µM | half-life [5]: 82.5 h | half-life [6]: 11.8 h | Retention_time (Mushroom tyrosinase [2]): 9.8 min | t1/2 [4]: 0.07 h | logD at 0.5 h [7]: 4.3 | Kcat/Km (Mushroom tyrosinase [15]): 1.39 M⁻¹ s⁻¹

Mushroom tyrosinase (Agaricus bisporus) (from UniProt O42713+Q00024+C7FF04+C7FF05)
Km (NCCc1ccc(O)c(O)c1): 280 µM | Km (O=C(O)Cc1ccc(O)cc1): 1910 µM | Km [18]: 250 µM

CCOC(=O)c1ccc(/N=N/N(C)C(=O)CCCCc2ccc(O)cc2)cc1
IC50 (HaCaT): > 150 µM | IC50 (B16-F10): > 75 µM | IC50 [9]: > 75 µM | half-life [6]: 26.3 h | t1/2 [4]: 0.08 h | logD at 0.5 h [7]: 4.5 | remaining at 192 h [16]: 100%

CN(/N=N/c1ccc(C(N)=O)cc1)C(=O)CCc1ccc(O)cc1
IC50 (HaCaT): 75 to 150 µM | K [3]: 2.5 ×10⁻³ /s | IC50 (B16-F10): > 75 µM | IC50 [9]: > 75 µM | half-life [5]: 118 h | half-life [6]: 48.5 h | metabolised (mushroom tyrosinase [17]): 100% | t1/2 [4]: 0.0767 to 0.077 h | logD at 0.5 h [7]: 2.8

CCOc1nc(/N=N/N(C)C(=O)Oc2ccc(S(N)(=O)=O)cc2)nc2[nH]cnc12
half-life [8]: 0.4 to 58.3 h

Cc1ccc(/N=N/N(C)C(=O)CCCCc2ccc(O)cc2)cc1
IC50 (HaCaT): > 150 µM | IC50 (B16-F10): 57.6 µM | IC50 [9]: 64.6 µM | half-life [6]: 79.7 h | t1/2 [4]: 0.0123 h | logD at 0.5 h [7]: 4 | remaining at 192 h [16]: 100%

COC(=O)c1ccc(/N=N/N(C)C(=O)CCc2ccc(O)cc2)cc1
IC50 (HaCaT): 75 to 150 µM | K [3]: 4.7 ×10⁻³ /s | IC50 (B16-F10): > 75 µM | IC50 [9]: > 75 µM | half-life [5]: 102 h | half-life [6]: 7.3 h | metabolised (mushroom tyrosinase [17]): 100% | t1/2 [4]: 0.041 to 0.0417 h | logD at 0.5 h [7]: 3.23

CCOC(=O)N(C)/N=N/c1nc(OCc2ccccc2)c2nc[nH]c2n1
half-life [8]: 0.4 to 58.3 h

Cn1nnc2c(C(N)=O)ncn2c1=O [TEMOZOLOMIDE]
IC50 (B16-F10): > 75 µM | IC50 [9]: > 75 µM

CC(=O)Nc1ccc(OC(=O)N(C)/N=N/c2nc(OCc3ccccc3)c3nc[nH]c3n2)cc1
half-life [8]: 0.4 to 58.3 h
